No end group written: not given here.
Legend:
[1] = test system: C57/BL/6J mice cornea; assay: Cornea neovascularisation assay; assay type: in vivo; details: pellet 500 ng, day 7
Protocol: Cornea Neovascularisation Assay. Pellets containing 500 ng Catestatin were implanted in C57/BL/6J mice (age of 8 weeks) as described (36). On postoperative day 7 mice received an intravenous injection of 500 μg BS1 lectin conjugated to FITC (Vector Laboratories). After euthanasia, enucleated eyes were fixed in 1% paraformaldehyde, corneas dissected and examined by fluorescence microscopy.

[2] = test system: Langendorff perfused rat heart; assay: WT-CST inotropism/lusitropism in presence of adrenergic, cholinergic, Gi/o and NO-pathway inhibitors (Langendorff heart); details: for Negative inotropism with muscarinic receptor antagonist: WT-CST 110 nM + Atropine 10 nM; for Negative inotropism with β-adrenoceptor antagonist: WT-CST 110 nM + Nadolol 10 nM; for Negative inotropism with α-adrenoceptor antagonist: WT-CST 110 nM + Phentolamine 100 nM; for Negative inotropism with Gi/o protein inhibition: WT-CST 110 nM after PTx 0.01 nM; for LVP change: preliminary experiments
Protocol: Adrenergic and cholinergic receptors involvement—To obtain information on the involvement of β1/β2, α-adrenergic receptors (ARs) and cholinergic receptors (AchR) on the inotropic and lusitropic effects induced by WT-Cts, cardiac preparations, stabilized for 20 min with KHs, were perfused with Nadolol (10 nM) or Phentolamine (100 nM) or Atropine (10 nM) for 10 min and then washed-out with KHs. After returning to control conditions, each heart was perfused with KHs containing a single concentration of Cts WT (110 nM) plus Nadolol (10 nM) or Phentolamine (100 nM) or Atropine (10 nM) for an additional 10 min.
Involvement of inhibitory G-protein (Gi/o)—To evaluate the involvement of inhibitory G-proteins in the cardiac action of WT-Cts, hearts were preincubated for 60 min with KHs enriched with pertussis toxin (PTx: 0.01 nM) and then exposed for 10 min to WT-Cts (110 nM). PTx catalyzes ADP-ribosylation of Gi/o alpha-subunit, uncoupling Gi-membrane receptor interaction.
NO-pathway inhibitor stimulated preparations—Hearts were stabilized for 20 min with KHs, perfused with 110 nM WT-Cts for 10 min and then the peptide was washed-out with KHs. After returning to control conditions, each heart was perfused with KHs containing either the NO scavenger PTIO, the non-specific NOS inhibitor L-NMMA, a soluble guanylate cyclase inhibitor (ODQ) or a protein kinase G blocker (KT5823). Subsequently, the hearts were exposed to the specific signaling inhibitor plus 110 nM of WT-Cts.

[3] = test system: GSK-3β Ser9; assay: Immunoblot of phosphorylated GSK-3β in WT-CST perfused hearts; parameters: species or system rat; details: 110 nM
Protocol: (§1) Cardiac signaling—Hearts were perfused with or without 110 nM WT-Cts as before. At the end of experiment hearts were snap frozen under liquid nitrogen and homogenized with 1 ml of ice cold 0.2 M sucrose, Tris maleate (pH 7.0) buffer supplemented with 2 mM EDTA, pH 8.0, 1 mM sodium orthovanadate, 10 mM sodium pyrophosphate, 1 mM phenylmethylsulfonyl fluoride, 10 μg/ml leupeptin, 10 μg/ml aprotinin and 0.1 mM 3-isobutyl-1-methylxanthine. SR membrane fractions were isolated from cytosolic proteins as described before (27). Protein content was determined by Bradford assay (BIO-RAD) and 100 μg of cytosolic protein was subjected to SDS-PAGE immunoblot analysis for phosphorylated-ERK, total ERK (P-ERK and T-ERK; Santa Cruz, Calif.). […]
(§2) Statistics—Data are expressed as the mean±SEM. Curve fitting was accomplished in the program Kaleidagraph (Synergy Software, Reading, Pa.). […] For analysis of phosphorylated proteins, levels were quantified using Bio-Rad QuantifyOne and volumes of phosphorylated proteins were divided by the levels of non-phosphorylated proteins to calculate fold activation. Stimulation of protein activity was expressed as fold increase over vehicle-treated control. The means and S.E.M. were calculated for each treatment. […]

[4] = test system: Langendorff perfused rat heart; assay: ET-1 stimulated Langendorff heart preparations
Protocol: ET-1 stimulated preparations—Hearts, stabilized for 20 min with KHs, were perfused for 10 min with ET-1 (1 nM) and then washed-out with KHs. After returning to control conditions, each heart was perfused with KHs containing a single concentration of either WT-Cts (33 nM), P370L-Cts (110 nM) or G364S-Cts (200 nM) plus 1 nM ET-1 for a further 10 min.

[5] = test system: ECs; assay: In-vitro angiogenic effects on ECs (migration, proliferation, matrigel assay); assay type: cell-based
[6] = test system: AKT Ser473; assay: Immunoblot of phosphorylated Akt in WT-CST perfused hearts; parameters: species or system rat; details: 110 nM
Protocol: as §1, §2

Q: Which results are given for “SSMKLSFRARAYGFRGPGPQL [WT-CST, catestatin]”?
A: Angiogenesis in the cornea [1]: induced growth of arteries; Negative inotropism with muscarinic receptor antagonist [2]: remained unaffected; Negative inotropism with muscarinic receptor antagonist ([2]; listed as WT-Cts): Unchanged; CST-induced changes in cardiac performance with PKG inhibition by KT5823 ([2]; WT-CST 110 nM + KT5823 0.1 μM): failed to affect; Negative inotropism and lusitropism with NOS inhibition by L-NMMA ([2]; WT-CST 110 nM + L-NMMA 10 μM): abolished; Negative inotropism with β-adrenoceptor antagonist [2]: abolished; Negative inotropism with β-adrenoceptor antagonist ([2]; listed as WT-Cts): Abolished; Negative inotropism and lusitropism with sGC blockade by ODQ ([2]; WT-CST 110 nM + ODQ 10 μM): abolished; Negative inotropism and lusitropism with NO removal by PTIO ([2]; WT-CST 110 nM + PTIO 10 μM): abolished; Negative inotropism with α-adrenoceptor antagonist [2]: reduced; Negative inotropism with α-adrenoceptor antagonist ([2]; listed as WT-Cts): Reduced; Negative inotropism with Gi/o protein inhibition [2]: abolished; Negative inotropism with Gi/o protein inhibition ([2]; listed as WT-Cts): Abolished; Negative inotropism with eNOS-NO-cGMP-PKG pathway inhibition ([2]; WT-CST 110 nM, Table 1): Abolished; LVP change ([2]; WT-Cts + L-NIO (eNOS selective inhibitor)): 5.04±1.69; LVP change ([2]; WT-Cts + Vinyl-L-NIO (nNOS selective inhibitor)): −13.14±2.25; LVP change ([2]; WT-Cts alone): −18.19±2.27; Phosphorylation of GSK-3β at Ser9 [3]: inhibited; ET-1 induced positive inotropism ([4]; ET-1 1 nM, WT-CST 33 nM, P370L-CST 110 nM, G364S-CST 200 nM): blocked; Effect on LVP and +(LVdP/dT)max ([4]; higher doses (10 nM)): decreased; Concentration of maximal function [5]: 1 nM; Direct effects on ECs [5]: exerts several direct effects on ECs including EC migration and proliferation; MAPK signaling pathway in ECs [5]: induced activation of MAPK signaling pathway; Angiogenic effects at higher concentration ([5]; 100 nM, EC migration, proliferation, in-vitro matrigel assay): angiogenic effects were still observed; Phosphorylation of AKT at Ser473 [6]: inhibited
